According to patent publication US20250059164A1, “IRAK DEGRADERS AND USES THEREOF” (Kymera Therapeutics, Inc., priority 2023, published 2025):

Target: T1, IRAK4 (Homo sapiens, UniProt Q9NWZ3)
T1 construct: endogenous in cells; host or cells: OCI-LY10
T1 sequence (Q9NWZ3 1-460): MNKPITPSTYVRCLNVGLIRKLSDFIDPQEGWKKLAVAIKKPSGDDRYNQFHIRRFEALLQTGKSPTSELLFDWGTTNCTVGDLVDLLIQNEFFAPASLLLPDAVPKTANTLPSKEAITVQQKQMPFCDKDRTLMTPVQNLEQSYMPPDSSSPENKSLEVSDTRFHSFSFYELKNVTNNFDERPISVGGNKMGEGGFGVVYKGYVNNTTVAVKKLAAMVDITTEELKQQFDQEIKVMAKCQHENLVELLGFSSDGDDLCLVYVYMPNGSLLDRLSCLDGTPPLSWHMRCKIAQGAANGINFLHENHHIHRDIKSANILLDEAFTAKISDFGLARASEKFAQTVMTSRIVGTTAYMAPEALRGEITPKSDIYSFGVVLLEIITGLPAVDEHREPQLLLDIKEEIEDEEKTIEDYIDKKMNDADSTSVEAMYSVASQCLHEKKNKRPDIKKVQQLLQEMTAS
Experiment: IRAK4 MSD degradation in OCI-LY10
Format: cell-based
Settings: OCI-LY10 cells, 24 hrs, Meso Scale Discovery
Method in brief: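 Remaining IRAK4 protein measured by Meso Scale Discovery electrochemiluminescence sandwich assay on lysates of OCI-LY10 cells. Cells were exposed for 4 to 24 hours (37° C., 5% CO2) to eight 1:3-diluted concentrations starting at 1 to 10 μM. DC50 derived by three-parameter logistic fitting.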

Row | SMILES | DC50
1 | Cn1c(=O)n(C2CCC(=O)NC2=O)c2cccc([C@@H]3CCN(C[C@H]4C[C@H](n5cc6cc(NC(=O)c7cccc(C(F)(F)F)n7)c(C#N)cc6n5)C4)C[C@H]3F)c21 (some centres unmarked) [I-94] | < 0.01 µM
2 | Cn1c(=O)n(C2CCC(=O)NC2=O)c2cccc([C@H]3CCN(C[C@H]4CC[C@H](c5nc6ccc(NC(=O)c7cccc(C(F)(F)F)n7)cc6s5)CC4)C[C@@H]3F)c21 (some centres unmarked) [I-97] | 0.01 to 0.1 µM
3 | Cn1c(=O)n(C2CCC(=O)NC2=O)c2cccc([C@H]3CCN(C[C@H]4CC[C@H](c5nc6cc(C(C)(C)O)c(NC(=O)c7cccc(C(F)(F)F)n7)cc6s5)CC4)C[C@@H]3F)c21 (some centres unmarked) [I-103] | < 0.01 µM
4 | CN(C[C@H]1CC[C@H](c2nc3cc(C(C)(C)O)c(NC(=O)c4cccc(C(F)(F)F)n4)cc3s2)CC1)[C@H]1CCN(c2cccc3c2n(C)c(=O)n3C2CCC(=O)NC2=O)C[C@H]1F (some centres unmarked) [I-105] | < 0.01 µM
5 | Cn1c(=O)n(C2CCC(=O)NC2=O)c2cccc(OC3CC4(CCN(Cc5ccc(-n6cc(NC(=O)c7cnn8ccc(N9C[C@H]%10C[C@@H]9CO%10)nc78)c(C(F)F)n6)cc5)CC4)C3)c21 (some centres unmarked) [I-113] | < 0.01 µM
6 | Cn1c(=O)n(C2CCC(=O)NC2=O)c2cccc(N3CC(C4CCN([C@H]5CC[C@H](n6cc(NC(=O)c7cnn8ccc(N9C[C@H]%10C[C@@H]9CO%10)nc78)c(C(F)F)n6)CC5)CC4(F)F)C3)c21 (some centres unmarked) [I-115] | < 0.01 µM
7 | COc1cc2nn([C@H]3CC[C@H](CN4CCN(c5cccc6c5c(C)nn6C5CCC(=O)NC5=O)CC4)CC3)cc2cc1NC(=O)c1cncc(C)c1 (some centres unmarked) [I-118] | 0.01 to 0.1 µM
8 | O=C1CCN(c2cncc3c(N4CC(CO[C@@H]5CCN(C[C@H]6CC[C@H](n7cc(NC(=O)c8cnn9ccc(N%10C[C@H]%11C[C@@H]%10CO%11)nc89)c(C(F)F)n7)CC6)C[C@@H]5F)C4)cccc23)C(=O)N1 [I-120] | < 0.01 µM
9 | Cn1nc(C2CCC(=O)NC2=O)c2cccc([C@@H]3CCN(C[C@H]4CC[C@H](n5cc6cc(NC(=O)c7cccc(C(F)(F)F)n7)ccc6n5)CC4)C[C@H]3F)c21 (some centres unmarked) [I-122] | < 0.01 µM
10 | Cn1c(=O)n(C2CCC(=O)NC2=O)c2cccc(N3CC(COC[C@H]4CC[C@H](n5cc6cc(NC(=O)c7cccc(C(F)(F)F)n7)ccc6n5)CC4)C3)c21 (some centres unmarked) [I-123] | 0.01 to 0.1 µM
11 | O=C1CC[C@H](c2ccc(N3CC(N4CCN([C@H]5CC[C@H](n6cc(NC(=O)c7cnn8ccc(N9C[C@H]%10C[C@@H]9CO%10)nc78)c(C(F)F)n6)CC5)CC4)C3)cc2Cl)C(=O)N1 [I-124] | < 0.01 µM
12 | O=C1CC[C@@H](c2ccc(N3CC(N4CCN([C@H]5CC[C@H](n6cc(NC(=O)c7cnn8ccc(N9C[C@H]%10C[C@@H]9CO%10)nc78)c(C(F)F)n6)CC5)CC4)C3)cc2Cl)C(=O)N1 [I-125] | 0.01 to 0.1 µM
13 | Cn1c(=O)n(C2CCC(=O)NC2=O)c2cccc(N3CC(COC[C@H]4CC[C@H](n5cc6cc(NC(=O)c7cccc(C(F)(F)F)c7)ccc6n5)CC4)C3)c21 (some centres unmarked) [I-126] | 0.01 to 0.1 µM
14 | COc1cc2nn([C@H]3CC[C@H](CN4CCC5(CCN(c6ccc(C7CCC(=O)NC7=O)c(Cl)c6)CC5)C(F)(F)C4)CC3)cc2cc1NC(=O)c1cncc(C#N)c1 (some centres unmarked) [I-130] | 0.01 to 0.1 µM
15 | COc1cc2nn([C@H]3CC[C@H](CN4CCC5(CCN(c6cccc7c6c(C)nn7C6CCC(=O)NC6=O)CC5)C(F)(F)C4)CC3)cc2cc1NC(=O)c1cncc(C#N)c1 (some centres unmarked) [I-131] | 0.01 to 0.1 µM
16 | CN(C[C@H]1CC[C@H](c2nc3cc(C(C)(C)O)c(NC(=O)c4cccc(C(F)(F)F)n4)cc3o2)CC1)[C@H]1CCN(c2cccc3c2n(C)c(=O)n3C2CCC(=O)NC2=O)C[C@@H]1F (some centres unmarked) [I-138] | < 0.01 µM
17 | CN(C[C@H]1CC[C@H](c2nc3cc(C(C)(C)O)c(NC(=O)c4cccc(C(F)(F)F)n4)cc3o2)CC1)[C@@H]1CCN(c2cccc3c2n(C)c(=O)n3C2CCC(=O)NC2=O)C[C@@H]1F (some centres unmarked) [I-139] | < 0.01 µM
18 | COc1cc2nc([C@H]3CC[C@H](CN4CCC5(CCN(c6cccc7c6n(C)c(=O)n7C6CCC(=O)NC6=O)CC5)C(F)(F)C4)CC3)sc2cc1NC(=O)c1cncc(C#N)c1 (some centres unmarked) [I-150] | > 0.2 µM
19 | COc1cc2nn([C@H]3CC[C@H](CN4CCC5(CCN(c6cccc7c6n(C)c(=O)n7C6CCC(=O)NC6=O)CC5)C(F)(F)C4)CC3)cc2cc1NC(=O)c1cccc(C(F)(F)F)c1 (some centres unmarked) [I-151] | 0.01 to 0.1 µM
20 | COc1cc2nc(C3CCN(CC4(F)CCN(c5cccc6c5n(C)c(=O)n6C5CCC(=O)NC5=O)CC4)CC3)sc2cc1NC(=O)c1cncc(C#N)c1 (centres unmarked) [I-157] | > 0.2 µM
21 | Cn1c(=O)n(C2CCC(=O)NC2=O)c2cccc(N3CCC4(CCN(C[C@H]5CC[C@H](n6cc7cc(NC(=O)c8cccc(C(F)(F)F)c8)ccc7n6)CC5)CC4(F)F)CC3)c21 (some centres unmarked) [I-158] | 0.01 to 0.1 µM
22 | Cn1c(=O)n(C2CCC(=O)NC2=O)c2cccc([C@@H]3CCN(C[C@H]4CC[C@H](n5cc6cc(NC(=O)c7cccnn7)ccc6n5)CC4)C[C@H]3F)c21 (some centres unmarked) [I-164] | 0.01 to 0.1 µM

Row | SMILES | DC50
23 | Cn1c(=O)n(C2CCC(=O)NC2=O)c2cccc([C@@H]3CCN(C[C@H]4CC[C@H](n5cc6cc(NC(=O)c7coc(C(F)(F)F)n7)ccc6n5)CC4)C[C@H]3F)c21 (some centres unmarked) [I-165] | < 0.01 µM
24 | COc1cc2nc([C@H]3CC[C@H](CN4CCC5(CCN(c6cccc7c6n(C)c(=O)n7C6CCC(=O)NC6=O)CC5)C(F)(F)C4)CC3)cn2cc1NC(=O)c1cncc(C#N)c1 (some centres unmarked) [I-168] | > 0.2 µM
25 | COc1cc2nc([C@H]3CC[C@H](CN4CC[C@@H](c5cccc6c5n(C)c(=O)n6C5CCC(=O)NC5=O)[C@H](F)C4)CC3)sc2cc1NC(=O)c1cncc(C(F)(F)F)n1 (some centres unmarked) [I-174] | 0.01 to 0.1 µM
26 | Cc1nn(C2CCC(=O)NC2=O)c2cccc([C@@H]3CCN(C[C@H]4CC[C@H](n5cc6cc(NC(=O)c7cccc(C(F)(F)F)n7)ncc6n5)CC4)C[C@H]3F)c12 (some centres unmarked) [I-187] | 0.01 to 0.1 µM
27 | COc1cc2nc([C@H]3CC[C@H](CN4CC[C@@H](c5cccc6c5n(C)c(=O)n6C5CCC(=O)NC5=O)[C@H](F)C4)CC3)cn2cc1NC(=O)c1cncc(C#N)c1 (some centres unmarked) [I-198] | > 0.2 µM
28 | CN(C[C@H]1CC[C@H](n2cc(NC(=O)c3cnn4cccnc34)c(C(F)F)n2)CC1)[C@@H]1CCN(c2cccc3c2n(C)c(=O)n3C2CCC(=O)NC2=O)CC1(F)F (some centres unmarked) [I-202] | 0.01 to 0.1 µM
29 | CN(C[C@H]1CC[C@H](n2cc(NC(=O)c3cnn4cccnc34)c(C(F)F)n2)CC1)[C@H]1CCN(c2cccc3c2n(C)c(=O)n3C2CCC(=O)NC2=O)CC1(F)F (some centres unmarked) [I-203] | 0.01 to 0.1 µM
30 | CN(C[C@H]1CC[C@H](c2nc3cc(C(C)(C)O)c(NC(=O)c4cccc(C(F)(F)F)n4)cc3s2)CC1)[C@H]1CCN(c2cccc3c2n(C)c(=O)n3C2CCC(=O)NC2=O)C[C@@H]1F (some centres unmarked) [I-239] | 0.01 to 0.1 µM
31 | Cn1c(=O)n(C2CCC(=O)NC2=O)c2cccc(N3CC(OC[C@H]4CC[C@H](n5cc6cc(NC(=O)c7cccc(C(F)(F)F)n7)ccc6n5)CC4)C3)c21 (some centres unmarked) [I-242] | > 0.2 µM
32 | Cn1c(=O)n(C2CCC(=O)NC2=O)c2cccc(N3CC(OC[C@H]4CC[C@H](n5cc6cc(NC(=O)c7cccc(C(F)(F)F)c7)ccc6n5)CC4)C3)c21 (some centres unmarked) [I-251] | > 0.2 µM
33 | COc1cc2nc([C@H]3CC[C@H](CN4CC[C@@H](c5cccc6c5n(C)c(=O)n6C5CCC(=O)NC5=O)[C@H](F)C4)CC3)sc2cc1NC(=O)c1cncc(C#N)c1 (some centres unmarked) [I-277] | > 0.2 µM
34 | COc1cn2nc([C@H]3CC[C@H](CN4CCC5(CCN(c6cccc7c6n(C)c(=O)n7C6CCC(=O)NC6=O)CC5)C(F)(F)C4)CC3)cc2cc1NC(=O)c1cncc(C#N)c1 (some centres unmarked) [I-282] | > 0.2 µM
35 | Cc1nn(C2CCC(=O)NC2=O)c2ccc(F)c(N3CC(CN4CCN(C[C@H]5CC[C@H](n6cc(NC(=O)c7cnn8ccc(N9C[C@H]%10C[C@@H]9CO%10)nc78)c(C(F)F)n6)CC5)CC4)C3)c12 (some centres unmarked) [I-287] | < 0.01 µM
36 | Cn1c(=O)n(C2CCC(=O)NC2=O)c2cccc([C@@H]3CCN(C[C@H]4CC[C@H](c5nc6ccc(NC(=O)c7cncc(C(F)(F)F)n7)cc6o5)CC4)C[C@H]3F)c21 (some centres unmarked) [I-295] | > 0.2 µM
37 | COc1cn2nc([C@H]3CC[C@H](CN(C)[C@H]4CCN(c5cccc6c5n(C)c(=O)n6C5CCC(=O)NC5=O)C[C@@H]4F)CC3)cc2cc1NC(=O)c1cncc(C(F)(F)F)n1 (some centres unmarked) [I-301] | < 0.01 µM
38 | Cn1c(=O)n(C2CCC(=O)NC2=O)c2cccc([C@@H]3CCN(C[C@H]4CC[C@H](n5cc6cc(NC(=O)c7cnnc(C(F)(F)F)c7)ccc6n5)CC4)C[C@H]3F)c21 (some centres unmarked) [I-316] | > 0.2 µM
39 | Cn1c(=O)n(C2CCC(=O)NC2=O)c2cccc(C#CCN3CCN(C[C@H]4CC[C@H](n5cc(NC(=O)c6cnn7ccc(N8C[C@H]9C[C@@H]8CO9)nc67)c(C(F)F)n5)CC4)[C@@H](C(F)(F)F)C3)c21 (some centres unmarked) [I-320] | 0.01 to 0.1 µM
40 | Cn1c(=O)n(C2CCC(=O)NC2=O)c2cccc(C#CCN3CCN(C[C@H]4CC[C@H](n5cc(NC(=O)c6cnn7ccc(N8C[C@H]9C[C@@H]8CO9)nc67)c(C(F)F)n5)CC4)[C@H](C(F)(F)F)C3)c21 (some centres unmarked) [I-345] | 0.01 to 0.1 µM
41 | Cn1c(=O)n(C2CCC(=O)NC2=O)c2cccc(N3CCN(C[C@H]4CC[C@H](n5cc6cc(NC(=O)c7cncc(C(F)(F)F)n7)ccc6n5)CC4)CC3=O)c21 (some centres unmarked) [I-350] | < 0.01 µM
42 | Cn1c(=O)n(C2CCC(=O)NC2=O)c2cccc(N3CCC4(CCN(C[C@H]5CC[C@H](n6cc7cc(NC(=O)c8cncc(C(F)(F)F)n8)c(C(C)(C)O)cc7n6)CC5)CC4(F)F)CC3)c21 (some centres unmarked) [I-354] | < 0.01 µM
43 | Cn1c(=O)n(C2CCC(=O)NC2=O)c2cccc(C3CCN(C[C@H]4CC[C@H](n5cc6cc(NC(=O)c7cncc(C(F)(F)F)n7)ccc6n5)CC4)C(=O)C3)c21 (some centres unmarked) [I-358] | < 0.01 µM
44 | Cn1c(=O)n(C2CCC(=O)NC2=O)c2cccc(N3CCN(C[C@H]4CC[C@H](n5cc6cc(NC(=O)c7cncc(C(F)(F)F)n7)ccc6n5)CC4)[C@H](C(F)(F)F)C3)c21 (some centres unmarked) [I-368] | 0.01 to 0.1 µM
